# Laboratory results taken from patent US20240116985A1, “STAPLED PEPTIDES AND METHODS THEREOF” (priority 2020, published 2024).
# Where two headings read alike, the source gives them in different places.
# What was measured:
# [1] = target: T1, full-length beta-Catenin (Uniprot ID P35222) (Homo sapiens, UniProt P35222); test: Fluorescence polarization IC50 (beta-catenin / 5FAM-TCF4 10-53 competition); assay type: binding; conditions: read-out: beta-Catenin FP IC50
# T1 construct: 10 nM full-length beta-Catenin (Uniprot ID P35222)
# T1 sequence (P35222 1-781): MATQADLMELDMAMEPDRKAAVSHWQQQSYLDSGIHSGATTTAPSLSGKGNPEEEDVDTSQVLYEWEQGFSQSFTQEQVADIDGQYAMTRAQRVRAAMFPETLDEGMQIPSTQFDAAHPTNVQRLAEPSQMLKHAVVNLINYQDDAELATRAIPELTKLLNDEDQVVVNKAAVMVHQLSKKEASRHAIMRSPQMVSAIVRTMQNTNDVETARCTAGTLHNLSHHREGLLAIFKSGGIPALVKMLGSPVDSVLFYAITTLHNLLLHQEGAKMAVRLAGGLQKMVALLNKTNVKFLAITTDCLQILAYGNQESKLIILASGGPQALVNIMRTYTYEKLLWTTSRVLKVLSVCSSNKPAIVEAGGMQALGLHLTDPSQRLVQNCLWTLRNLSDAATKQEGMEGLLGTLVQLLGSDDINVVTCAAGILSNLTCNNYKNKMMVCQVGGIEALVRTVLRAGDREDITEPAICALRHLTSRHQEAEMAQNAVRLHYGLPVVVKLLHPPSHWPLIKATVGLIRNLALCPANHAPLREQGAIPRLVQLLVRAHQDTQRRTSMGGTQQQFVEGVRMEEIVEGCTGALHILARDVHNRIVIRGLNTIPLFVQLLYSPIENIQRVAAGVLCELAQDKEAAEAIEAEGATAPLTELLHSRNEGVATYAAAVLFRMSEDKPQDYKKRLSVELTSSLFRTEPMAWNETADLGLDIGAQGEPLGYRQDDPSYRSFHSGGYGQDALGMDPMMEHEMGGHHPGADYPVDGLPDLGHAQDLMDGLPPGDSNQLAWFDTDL
# CHI Log D procedure = assay type: physicochemical; conditions: pH 7.4, CHI Log D
# Solubility in PBS = assay type: physicochemical
# Method in brief: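 Steps: ultracentrifuge the peptide PBS solution, inject the supernatant on HPLC, inject a 50 μM peptide DMSO solution as reference, then calculate solubility as area ratio (PBS/DMSO) × 50 uM.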
# [2] = target: T2, beta-catenin/TCF4 engagement (Homo sapiens, UniProt P35222); test: Nano-BRET target engagement assay (B-cat-Halo & TCF4-Luc in HEK293 cells); assay type: cell-based; conditions: for inhibition at 10 µM: HEK293, @ 10 uM, read-out: NanoBRET % inh @ 10 uM
# T2 construct: expressed in transfected cells; host or cells: HEK293
# T2 sequence (P35222 1-781): T1 sequence (P35222 1-781)
IC50 [1] [µM],chromatographic logD (CHI Log D procedure),Solubility (Solubility in PBS) [µM],IC50 ([2]; read-out: NanoBRET Abs IC50) [µM],IC50 ([2]; read-out: NanoBRET IC50) [µM],Solubility (Solubility in PBS; Solubility (uM)) [µM],inhibition at 10 µM [2] [%],SMILES
0.009,2.08,50,20.7,17.1,–,–,"COc1ccccc1C[C@H](NC(=O)[C@]12CCN(C1)C(=O)OCCCC=CCCCC1(CCCC=CC[C@]3(CCCN3C(C)=O)C(=O)N[C@@H](CC(=O)O)C(=O)N[C@@H](CC(C)(C)C)C(=O)N1)C(=O)N[C@@H](CC(=O)O)C(=O)N[C@@H](CC(=O)O)C(=O)N[C@@H](C)C(=O)N[C@@H](C)C(=O)N[C@@H](Cc1ccccc1)C(=O)N[C@@H](CC(N)=O)C(=O)N2)C(=O)N[C@@H](Cc1csc2ccccc12)C(=O)N[C@@H](CCC(N)=O)C(N)=O (stereo partly drawn) [I-780, Ac-PL3-Asp-Npg-B5-Asp-Asp-Ala-Ala-Phe-Asn-PyrS2-2OMeF-BztA-Gln-NH2]"
0.005,2.16,–,–,11.6,41,24,"COc1ccccc1C[C@H](NC(=O)[C@]12CCN(C1)C(=O)OCCCC=CCCCC1(CCCC=CC[C@]3(CCCN3C(C)=O)C(=O)N[C@@H](CC(=O)O)C(=O)N[C@@H](CC(C)(C)C)C(=O)N1)C(=O)N[C@@H](CC(=O)O)C(=O)N[C@@H](CC(=O)O)C(=O)N[C@@H](C)C(=O)N[C@@H](C)C(=O)N[C@@H](Cc1ccccc1)C(=O)N[C@@H](CC(N)=O)C(=O)N2)C(=O)N[C@@H](Cc1csc2ccccc12)C(=O)N[C@@H](Cc1c[nH]cn1)C(N)=O (stereo partly drawn) [I-781, Ac-PL3-Asp-Npg-B5-Asp-Asp-Ala-Ala-Phe-Asn-PyrS2-2OMeF-BztA-His-NH2]"
0.006,2.21,–,12.2,–,38,–,"CC(=O)N1CCC[C@]12CC=CCCCC1(CCCC=CCCCOC(=O)N3CC[C@@](C(=O)N[C@@H](Cc4ccccc4C)C(=O)N[C@@H](Cc4csc5ccccc45)C(=O)N[C@@H](Cc4c[nH]cn4)C(N)=O)(C3)NC(=O)[C@H](CC(N)=O)NC(=O)[C@H](Cc3ccccc3)NC(=O)[C@H](C)NC(=O)[C@H](C)NC(=O)[C@H](CC(=O)O)NC(=O)[C@H](CC(=O)O)NC1=O)NC(=O)[C@H](CC(C)(C)C)NC(=O)[C@H](CC(=O)O)NC2=O (stereo partly drawn) [I-782, Ac-PL3-Asp-Npg-B5-Asp-Asp-Ala-Ala-Phe-Asn-PyrS2-2MeF-BztA-His-NH2]"
0.007,2.19,–,6.2,7.5,48,50.9,"CC(=O)N1CCC[C@]12CC=CCCCC1(CCCC=CCCCOC(=O)N3CC[C@@](C(=O)N[C@@H](Cc4ccccc4Cl)C(=O)N[C@@H](Cc4csc5ccccc45)C(=O)N[C@@H](CCC(N)=O)C(N)=O)(C3)NC(=O)[C@H](CC(N)=O)NC(=O)[C@H](Cc3ccccc3)NC(=O)[C@H](C)NC(=O)[C@H](C)NC(=O)[C@H](CC(=O)O)NC(=O)[C@H](CC(=O)O)NC1=O)NC(=O)[C@H](CC(C)(C)C)NC(=O)[C@H](CC(=O)O)NC2=O (stereo partly drawn) [I-783, Ac-PL3-Asp-Npg-B5-Asp-Asp-Ala-Ala-Phe-Asn-PyrS2-2C1F-BztA-Gln-NH2]"
0.006,2.29,–,14.5,12.1,21,35.1,"CC(=O)N1CCC[C@]12CC=CCCCC1(CCCC=CCCCOC(=O)N3CC[C@@](C(=O)N[C@@H](Cc4ccccc4Cl)C(=O)N[C@@H](Cc4csc5ccccc45)C(=O)N[C@@H](Cc4c[nH]cn4)C(N)=O)(C3)NC(=O)[C@H](CC(N)=O)NC(=O)[C@H](Cc3ccccc3)NC(=O)[C@H](C)NC(=O)[C@H](C)NC(=O)[C@H](CC(=O)O)NC(=O)[C@H](CC(=O)O)NC1=O)NC(=O)[C@H](CC(C)(C)C)NC(=O)[C@H](CC(=O)O)NC2=O (stereo partly drawn) [I-784, Ac-PL3-Asp-Npg-B5-Asp-Asp-Ala-Ala-Phe-Asn-PyrS2-2C1F-BztA-His-NH2]"
0.006,2.28,–,21.6,–,42,31,"CC(=O)N1CCC[C@]12CC=CCCCC1(CCCC=CCCCOC(=O)N3CC[C@@](C(=O)N[C@@H](Cc4ccsc4)C(=O)N[C@@H](Cc4csc5ccccc45)C(N)=O)(C3)NC(=O)[C@H](CC(N)=O)NC(=O)[C@H](Cc3ccccc3)NC(=O)[C@H](C)NC(=O)[C@H](C)NC(=O)[C@H](CC(=O)O)NC(=O)[C@H](CC(=O)O)NC1=O)NC(=O)[C@H](CC(C)(C)C)NC(=O)[C@H](CC(=O)O)NC2=O (stereo partly drawn) [I-785, Ac-PL3-Asp-Npg-B5-Asp-Asp-Ala-Ala-Phe-Asn-PyrS2-3Thi-BztA-NH2]"
0.008,2.3,–,29.3,17.1,39,–,"CC(=O)N1CCC[C@]12CC=CCCCC1(CCCC=CCCCOC(=O)N3CC[C@@](C(=O)N[C@@H](Cc4ccsc4)C(=O)N[C@@H](Cc4csc5ccccc45)C(N)=O)(C3)NC(=O)[C@H](CC(N)=O)NC(=O)[C@H](Cc3ccccc3)NC(=O)[C@H](C)NC(=O)[C@H](C)NC(=O)[C@H](CCC(=O)O)NC(=O)[C@H](CC(=O)O)NC1=O)NC(=O)[C@H](CC(C)(C)C)NC(=O)[C@H](CC(=O)O)NC2=O (stereo partly drawn) [I-786, Ac-PL3-Asp-Npg-B5-Asp-Glu-Ala-Ala-Phe-Asn-PyrS2-3Thi-BztA-NH2]"
0.005,2.17,–,21.6,–,31,–,"CC(=O)N1CCC[C@]12CC=CCCCC1(CCCC=CCCCOC(=O)N3CC[C@@](C(=O)N[C@@H](Cc4ccsc4)C(=O)N[C@@H](Cc4csc5ccccc45)C(=O)N[C@@H](Cc4c[nH]cn4)C(N)=O)(C3)NC(=O)[C@H](CC(N)=O)NC(=O)[C@H](Cc3ccccc3)NC(=O)[C@H](C)NC(=O)[C@H](C)NC(=O)[C@H](CC(=O)O)NC(=O)[C@H](CC(=O)O)NC1=O)NC(=O)[C@H](CCC(C)C)NC(=O)[C@H](CC(=O)O)NC2=O (stereo partly drawn) [I-788, Ac-PL3-Asp-hLeu-B5-Asp-Asp-Ala-Ala-Phe-Asn-PyrS2-3Thi-BztA-His-NH2]"
0.019,2.08,50,> 20,–,–,9.7,"CC(=O)N1CCC[C@]12CC=CCCCC1(CCCC=CCCCOC(=O)N3CC[C@@](C(=O)N[C@@H](Cc4ccsc4)C(=O)N[C@@H](Cc4cccc5ccccc45)C(=O)N[C@@H](Cc4c[nH]cn4)C(N)=O)(C3)NC(=O)[C@H](CC(N)=O)NC(=O)[C@H](Cc3ccccc3)NC(=O)[C@H](C)NC(=O)[C@H](C)NC(=O)[C@H](CC(=O)O)NC(=O)[C@H](CC(=O)O)NC1=O)NC(=O)[C@H](CC(C)(C)C)NC(=O)[C@H](CC(=O)O)NC2=O (stereo partly drawn) [I-789, Ac-PL3-Asp-Npg-B5-Asp-Asp-Ala-Ala-Phe-Asn-PyrS2-3Thi-1NapA-His-NH2]"
0.024,2.12,50,> 20,–,–,–,"CC(=O)N1CCC[C@]12CC=CCCCC1(CCCC=CCCCOC(=O)N3CC[C@@](C(=O)N[C@@H](Cc4ccsc4)C(=O)N[C@@H](Cc4ccc5ccccc5c4)C(=O)N[C@@H](Cc4c[nH]cn4)C(N)=O)(C3)NC(=O)[C@H](CC(N)=O)NC(=O)[C@H](Cc3ccccc3)NC(=O)[C@H](C)NC(=O)[C@H](C)NC(=O)[C@H](CC(=O)O)NC(=O)[C@H](CC(=O)O)NC1=O)NC(=O)[C@H](CC(C)(C)C)NC(=O)[C@H](CC(=O)O)NC2=O (stereo partly drawn) [I-790, Ac-PL3-Asp-Npg-B5-Asp-Asp-Ala-Ala-Phe-Asn-PyrS2-3Thi-2NapA-His-NH2]"
0.02,1.96,–,> 20,–,33,–,"CC(=O)N1CCC[C@]12CC=CCCCC1(CCCC=CCCCOC(=O)N3CC[C@@](C(=O)N[C@@H](Cc4ccsc4)C(=O)N[C@@H](Cc4c[nH]c5ccccc45)C(=O)N[C@@H](Cc4c[nH]cn4)C(N)=O)(C3)NC(=O)[C@H](CC(N)=O)NC(=O)[C@H](Cc3ccccc3)NC(=O)[C@H](C)NC(=O)[C@H](C)NC(=O)[C@H](CC(=O)O)NC(=O)[C@H](CC(=O)O)NC1=O)NC(=O)[C@H](CC(C)(C)C)NC(=O)[C@H](CC(=O)O)NC2=O (stereo partly drawn) [I-792, Ac-PL3-Asp-Npg-B5-Asp-Asp-Ala-Ala-Phe-Asn-PyrS2-3Thi-Trp-His-NH2]"
0.014,2.39,10,> 20,–,–,–,"CC(=O)N1CCC[C@]12CC=CCCCC1(CCCC=CCCCOC(=O)N3CC[C@@](C(=O)N[C@@H](Cc4csc5ccccc45)C(=O)N[C@@H](Cc4csc5ccccc45)C(=O)N[C@@H](Cc4c[nH]cn4)C(N)=O)(C3)NC(=O)[C@H](CC(N)=O)NC(=O)[C@H](Cc3ccccc3)NC(=O)[C@H](C)NC(=O)[C@H](C)NC(=O)[C@H](CC(=O)O)NC(=O)[C@H](CC(=O)O)NC1=O)NC(=O)[C@H](CC(C)(C)C)NC(=O)[C@H](CC(=O)O)NC2=O (stereo partly drawn) [I-793, Ac-PL3-Asp-Npg-B5-Asp-Asp-Ala-Ala-Phe-Asn-PyrS2-BztA-BztA-His-NH2]"
